# Source: US20250186391A1, “ORAL COMPLEMENT FACTOR D INHIBITORS” (BioCryst Pharmaceuticals, Inc., priority 2019, published 2025)
# Target: Factor D (Homo sapiens (Human), UniProt P00746)
# Experiment: Factor D esterolytic assay
# Type: biochemical
# Settings: Z-Lys-SBzl substrate, 100 mM HEPES, 500 mM NaCl, pH 7.5, 10% DMSO; tested a minimum of three times; read-out: Measured Ki (IC50) Value for Compounds: IC50
# Outline: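 Chromogenic thioesterase read-out: Z-Lys-SBzl (1.29 mM) hydrolysis by human Factor D, thiol detected with DTNB at 405 nm (690 nm background subtracted) for 600 s. Run in 100 mM HEPES, 500 mM NaCl, pH 7.5, 10% DMSO, substrate added immediately or after room-temperature preincubation. IC50 from percent inhibition versus enzyme alone, n≥3.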
# Sequence of Factor D (P00746 26-253): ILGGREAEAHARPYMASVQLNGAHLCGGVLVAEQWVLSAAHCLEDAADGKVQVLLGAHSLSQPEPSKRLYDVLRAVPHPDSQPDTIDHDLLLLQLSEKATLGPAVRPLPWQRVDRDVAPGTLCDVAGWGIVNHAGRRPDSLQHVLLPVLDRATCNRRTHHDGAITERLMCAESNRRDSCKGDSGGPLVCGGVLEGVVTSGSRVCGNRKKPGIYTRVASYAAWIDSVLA
row,SMILES,IC50
1,"CC(C)n1nc(C(Oc2ccccc2CC(=O)O)c2ccccc2)c2cc(-c3cccc(CN)c3)ccc21 (stereo not shown) [Compound 228e, 2-(2-((5-(3-(aminomethyl)phenyl)-1-isopropyl-1H-indazol-3-yl)(phenyl)methoxy)phenyl)acetic acid]",> 10000 nM
2,"Cc1oc2c(cc(-c3cccc(CN)c3)c3occc32)c1COc1ccccc1CC(=O)O [Compound 233h, 2-(2-((5-(3-(aminomethyl)phenyl)-2-methylbenzo[1,2-b:3,4-b′]difuran-3-yl)methoxy)phenyl)acetic acid]",< 1000 nM
3,"COc1ccc(CC(=O)O)c(OCc2c(C(F)F)oc3c(C4CC4)cc(-c4cccc(CN)c4)cc23)c1 [Compound 234d, 2-(2-((5-(3-(aminomethyl)phenyl)-7-cyclopropyl-2-(difluoromethyl)benzofuran-3-yl)methoxy)-4-methoxyphenyl)acetic acid]",< 1000 nM
4,"NCc1cccc(-c2cc(N)c3oc(COc4ccccc4CC(=O)O)cc3c2)c1 [Compound 235g, 2-(2-((7-amino-5-(3-(aminomethyl)phenyl)benzofuran-2-yl)methoxy)phenyl)acetic acid]",> 10000 nM
5,"COc1ccc(CC(=O)O)c(OCc2c(C(F)F)oc3c(NCC4CC4)cc(-c4cccc(CN)c4)cc23)c1 [Compound 236c, 2-(2-((5-(3-(aminomethyl)phenyl)-7-((cyclopropylmethyl)amino)-2-(difluoromethyl)benzofuran-3-yl)methoxy)-4-methoxyphenyl)acetic acid]",< 1000 nM
6,"COc1cc(-c2cccc(CN)c2)cc2c(COc3c(C)cccc3CC(=O)O)coc12 [Compound 237c, 2-(2-((5-(3-(aminomethyl)phenyl)-7-methoxybenzofuran-3-yl)methoxy)-3-methylphenyl)acetic acid]",< 1000 nM
7,"COCCc1oc2ccc(-c3cccc(CN)c3)cc2c1COc1cc(OC)ccc1CC(=O)O [Compound 238c, 2-(2-((5-(3-(aminomethyl)phenyl)-2-(2-methoxyethyl)benzofuran-3-yl)methoxy)-4-methoxyphenyl)acetic acid]",< 1000 nM
8,"COc1ccc(CC(=O)O)c(OCc2c(C)oc3ccc(-c4cc(F)cc(CN)c4)cc23)c1 [Compound 239c, 2-(2-((5-(3-(aminomethyl)-5-fluorophenyl)-2-methylbenzofuran-3-yl)methoxy)-4-methoxyphenyl)acetic acid]",< 1000 nM
9,"COc1ccc(CC(=O)O)c(OCc2c(C)oc3ccc(-c4cccc([C@H](C)N)c4)cc23)c1 [Compound 240b, (S)-2-(2-((5-(3-(1-aminoethyl)phenyl)-2-methylbenzofuran-3-yl)methoxy)-4-methoxyphenyl)acetic acid]",< 1000 nM
10,"COc1ccc(CC(=O)O)c(OCc2c(C)oc3ccc(-c4cccc([C@H](N)CO)c4)cc23)c1 [Compound 241c, (S)-2-(2-((5-(3-(1-amino-2-hydroxyethyl)phenyl)-2-methylbenzofuran-3-yl)methoxy)-4-methoxyphenyl)acetic acid]",< 1000 nM
11,"COc1ccc(CC(=O)O)c(OCc2c(C)oc3ccc(-c4cccc([C@@H](C)N)c4)cc23)c1 [Compound 242b, (R)-2-(2-((5-(3-(1-aminoethyl)phenyl)-2-methylbenzofuran-3-yl)methoxy)-4-methoxyphenyl)acetic acid]",< 1000 nM
12,"CC(C)n1nc(COc2ccccc2CC(=O)O)c2cc(-c3cc(O)cc(CN)c3)ccc21 [Compound 243g, 2-(2-((5-(3-(aminomethyl)-5-hydroxyphenyl)-1-isopropyl-1H-indazol-3-yl)methoxy)phenyl)acetic acid]",< 1000 nM
13,"CC(C)n1nc(COc2ccccc2CC(=O)O)c2cc(-c3cc(CN)cc(OCc4cccnc4)c3)ccc21 [Compound 243h, 2-(2-((5-(3-(aminomethyl)-5-(pyridin-3-ylmethoxy)phenyl)-1-isopropyl-1H-indazol-3-yl)methoxy)phenyl)acetic acid]",> 10000 nM
14,"COc1ccc(CC(=O)O)c(OCc2c(C)oc3ccc(-c4cccc(CN)c4O)cc23)c1 [Compound 244d, 2-(2-((5-(3-(aminomethyl)-2-hydroxyphenyl)-2-methylbenzofuran-3-yl)methoxy)-4-methoxyphenyl)acetic acid]",< 1000 nM
15,"COc1ccc(CC(=O)O)c(OCc2c(C)oc3ccc(-c4cccc(CN)n4)cc23)c1 [Compound 245d, 2-(2-((5-(6-(aminomethyl)pyridin-2-yl)-2-methylbenzofuran-3-yl)methoxy)-4-methoxyphenyl)acetic acid]",< 1000 nM
16,"CCCC(C(=O)O)c1ccccc1OCc1nn(C(C)C)c2ccc(-c3cccc(CN)c3)cc12 (stereo not shown) [Compound 246f, 2-(2-((5-(3-(aminomethyl)phenyl)-1-isopropyl-1H-indazol-3-yl)methoxy)phenyl)pentanoic acid]",1000 to 10000 nM
17,"COc1ccc(CC(=O)O)c(OCc2c(C3CC3)oc3ccc(-c4cccc(CN)c4)cc23)c1 [Compound 247c, 2-(2-((5-(3-(aminomethyl)phenyl)-2-cyclopropylbenzofuran-3-yl)methoxy)-4-methoxyphenyl)acetic acid]",< 1000 nM
18,"NCc1cccc(-c2cc(OCCF)c3occ(COc4ccccc4CC(=O)O)c3c2)c1 [Compound 248f, 2-(2-((5-(3-(aminomethyl)phenyl)-7-(2-fluoroethoxy)benzofuran-3-yl)methoxy)phenyl)acetic acid]",< 1000 nM

# Further lines, results first:
row,IC50,SMILES
1,< 1000 nM,"COc1ccc(CC(=O)O)c(OCc2c(C(O)C(F)(F)F)oc3ccc(-c4cccc(CN)c4)cc23)c1 (stereo not shown) [Compound 216c, 2-(2-((5-(3-(aminomethyl)phenyl)-2-(2,2,2-trifluoro-1-hydroxyethyl)benzofuran-3-yl)methoxy)-4-methoxyphenyl)acetic acid]"
2,< 1000 nM,"COc1ccc(CC(=O)O)c(OCc2c(C(C)O)oc3ccc(-c4cccc(CN)c4)cc23)c1 (stereo not shown) [Compound 217c, 2-(2-((5-(3-(aminomethyl)phenyl)-2-(1-hydroxyethyl)benzofuran-3-yl)methoxy)-4-methoxyphenyl)acetic acid]"
3,< 1000 nM,"COc1ccc(CC(=O)O)c(OCc2c(C(C)=O)oc3ccc(-c4cccc(CN)c4)cc23)c1 [Compound 218c, 2-(2-((2-acetyl-5-(3-(aminomethyl)phenyl)benzofuran-3-yl)methoxy)-4-methoxyphenyl)acetic acid]"
4,< 1000 nM,"CC(C)c1ccccc1-c1cc(-c2cccc(CN)c2)cc2c(COc3ccccc3CC(=O)O)coc12 [Compound 219c, 2-(2-((5-(3-(aminomethyl)phenyl)-7-(2-isopropylphenyl)benzofuran-3-yl)methoxy)phenyl)acetic acid]"
5,< 1000 nM,"Cc1cccc(C)c1-c1cc(-c2cccc(CN)c2)cc2c(COc3ccccc3CC(=O)O)coc12 [Compound 220c, 2-(2-((5-(3-(aminomethyl)phenyl)-7-(2,6-dimethylphenyl)benzofuran-3-yl)methoxy)phenyl)acetic acid]"
6,< 1000 nM,"NCc1cccc(-c2cc(-c3ccc(F)cc3)c3occ(COc4ccccc4CC(=O)O)c3c2)c1 [Compound 221c, 2-(2-((5-(3-(aminomethyl)phenyl)-7-(4-fluorophenyl)benzofuran-3-yl)methoxy)phenyl)acetic acid]"
7,< 1000 nM,"NCc1cccc(-c2cc(-c3ccccc3N)c3occ(COc4ccccc4CC(=O)O)c3c2)c1 [Compound 222c, 2-(2-((5-(3-(aminomethyl)phenyl)-7-(2-aminophenyl)benzofuran-3-yl)methoxy)phenyl)acetic acid]"
8,< 1000 nM,"Cc1ccccc1-c1cc(-c2cccc(CN)c2)cc2c(COc3ccccc3CC(=O)O)coc12 [Compound 223c, 2-(2-((5-(3-(aminomethyl)phenyl)-7-(o-tolyl)benzofuran-3-yl)methoxy)phenyl)acetic acid]"
9,< 1000 nM,"Cc1cc(-c2cc(-c3cccc(CN)c3)cc3c(COc4ccccc4CC(=O)O)coc23)cn(C)c1=O [Compound 224c, 2-(2-((5-(3-(aminomethyl)phenyl)-7-(1,5-dimethyl-6-oxo-1,6-dihydropyridin-3-yl)benzofuran-3-yl)methoxy)phenyl)acetic acid]"
10,< 1000 nM,"CCc1oc2ccc(-c3cccc(CN)c3)cc2c1COc1cc(OC)ccc1CC(=O)O [Compound 225e, 2-(2-((5-(3-(aminomethyl)phenyl)-2-ethylbenzofuran-3-yl)methoxy)-4-methoxyphenyl)acetic acid]"
11,< 1000 nM,"CCc1oc2ccc(-c3cccc(CN)c3)cc2c1COc1ccccc1CC(=O)O [Compound 226c, 2-(2-((5-(3-(aminomethyl)phenyl)-2-ethylbenzofuran-3-yl)methoxy)phenyl)acetic acid]"
12,< 1000 nM,"CCc1oc2ccc(-c3cccc(CN)c3F)cc2c1COc1cc(OC)ccc1CC(=O)O [Compound 227b, 2-(2-((5-(3-(aminomethyl)-2-fluorophenyl)-2-ethylbenzofuran-3-yl)methoxy)-4-methoxyphenyl)acetic acid]"
13,< 1000 nM,"NCc1cccc(-c2cc3c(COc4ccccc4CC(=O)O)coc3c3occc23)c1 [Compound 229g, 2-(2-((5-(3-(aminomethyl)phenyl)benzo[1,2-b:6,5-b′]difuran-3-yl)methoxy)phenyl)acetic acid]"
14,< 1000 nM,"Cc1ccc(CC(=O)O)c(OCc2coc3c2cc(-c2cccc(CN)c2)c2occc23)c1 [Compound 230c, 2-(2-((5-(3-(aminomethyl)phenyl)benzo[1,2-b:3,4-b′]difuran-3-yl)methoxy)-4-methylphenyl)acetic acid]"
15,< 1000 nM,"COc1ccc(CC(=O)O)c(OCc2coc3c2cc(-c2cccc(CN)c2)c2occc23)c1 [Compound 231c, 2-(2-((5-(3-(aminomethyl)phenyl)benzo[1,2-b:3,4-b′]difuran-3-yl)methoxy)-4-methoxyphenyl)acetic acid]"
16,< 1000 nM,"NCc1cccc(-c2cc3c(COc4ccccc4CC(=O)O)csc3c3occc23)c1 [Compound 232h, 2-(2-((4-(3-(aminomethyl)phenyl)thieno[3,2-g]benzofuran-6-yl)methoxy)phenyl)acetic acid]"
